Values after ≈ are worked out from the molar mass of the structure shown. Read-outs that look alike come from different tables or passages of the source.

The record followed here is patent publication US11459323B2, “Monocyclic β-lactam compound for treating bacterial infection” (MEDSHINE DISCOVERY INC., priority 2018, dated 2022).

The subject of series [1] is Pseudomonas aeruginosa PA14. The experiment in a line: Lungs of immunosuppressed mice infected with Pseudomonas aeruginosa (1), lung bacterial load. Format: in vivo. Particulars: 24 hours after infection, total dosage 400 mg/kg, day, ip at 2 h, 4 h, 6 h, 8 h. The procedure: Pseudomonas aeruginosa PA14. 64 mice were intraperitoneally injected with 150 mg/kg cyclophosphamide on the first day and the fourth day to give immunosuppressed mice. […] [table] The mice were injected with 50 μL of bacterial solution (2×10^3 CFU) through the airway. 2 hours after the infection, 4 mice in the model group was sacrificed by removing cervical vertebra. Two hours after infection, the drugs were administered by groups, and the mice were administered intraperitoneally once at 2 hours, 4 hours, 6 hours, and 8 hours, a total of 4 times. Mice of each group were sacrificed by removing cervical vertebra 24 hours after infection, lung and kidney tissues were taken aseptically and put into sterilized tissue homogenate tubes, weighed, and an appropriate amount of normal saline (NS) was added, the mixture was homogenized by a homogenizer for 1 min, the lung tissues of the model group were diluted 10^4, 10^5, 10^6 times, the lung tissues of each administration group were diluted 10, 100 times, the kidney tissues of the model group were diluted 10^2, […], 10^4 times, and the lung tissues of each administration group were diluted 10 times, the obtained mixtures were coated on TSA plates using spiral coater, then incubated at 37° C. overnight, and the CFU was counted with a colony counter. Graphpad Prism mapping software was used to make scatter plots of lung tissue CFU. SPSS19.0 software was used to count CFU and average body weight, and analysis of variance was used to analyze differences between groups.

A further series deals with A. baumannii ATCC 17978. Put plainly: MIC by micro-liquid dilution method (CLSI). The series is classed as cell-based. Conditions: Acinetobacter baumannii; A. baumannii ATCC17978; read-out: MIC.
Series [2] in a line: Body weight of mice in Pseudomonas aeruginosa lung infection experiment (1). Format: in vivo, CD-1 (ICR) mice. Conditions: Aztreonam group (400 mg/kg.day, ip). As to the method: CD-1 (ICR) mice, provided by Beijing Charles River Laboratory Animal Technology Co., Ltd., weighing 23-27 g, 7 weeks old, female, a total of 64 mice.
The mice were weighed every day after the start of the experiment and the weight changes were recorded.
Graphpad Prism mapping software was used to make scatter plots of lung tissue CFU. SPSS19.0 software was used to count CFU and average body weight, and analysis of variance was used to analyze differences between groups.

The subject of series [3] is Acinetobacter baumannii ATCC-BAA-1795. Put plainly: MIC on Acinetobacter baumannii strains. The series is classed as cell-based. Conditions: ATCCBAA1795. In a few lines:
(§1)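 MICs were determined by the micro-liquid dilution method following CLSI requirements, with each strain tested as part of a panel of twelve A. baumannii strains.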

Series [4] relates to Acinetobacter baumannii ATCC-BAA-1799. Put plainly: MIC on Acinetobacter baumannii strains. Format: cell-based. Conditions: ATCCBAA1799. In short, it runs like this: as §1
The subject of series [5] is Acinetobacter baumannii ATCC-BAA-1791. Put plainly: MIC on Acinetobacter baumannii strains. Conditions: ATCCBAA1791. Format: cell-based. In short, it runs like this:
as §1

Series [6] concerns Acinetobacter baumannii ATCC-BAA-1790. Put plainly: MIC on Acinetobacter baumannii strains. The series is classed as cell-based. In short, it runs like this: as §1
In series [7] the test system is Acinetobacter baumannii ATCC 19606. The experiment in a line: MIC on Acinetobacter baumannii strains. The series is classed as cell-based. Conditions: ATCC19606. In a few lines: as §1
For series [8], the system named is Acinetobacter baumannii ATCC 17978. The experiment in a line: MIC on Acinetobacter baumannii strains. The series is classed as cell-based. Conditions: ATCC17978. In short, it runs like this: as §1
In series [9] the test system is Acinetobacter baumannii ATCC-BAA-1800. The experiment in a line: MIC on Acinetobacter baumannii strains. The series is classed as cell-based. In a few lines: as §1
Series [10] concerns Acinetobacter baumannii ATCC-BAA-1605. Put plainly: MIC on Acinetobacter baumannii strains. The series is classed as cell-based. In a few lines: as §1
For series [11], the system named is Acinetobacter baumannii ATCC-BAA-1792. Put plainly: MIC on Acinetobacter baumannii strains. Format: cell-based. In a few lines:
as §1

For series [12], the system named is K. pneumoniae ATCC BAA-1705 (KPC-2). Put plainly: MIC by micro-liquid dilution method (CLSI). The series is classed as cell-based, Klebsiella pneumonia. Conditions: Klebsiella pneumoniae, ATCCBAA1705.
The subject of series [13] is K. pneumoniae ATCC BAA-205 (TEM-1/SHV-1/SHV-12). Put plainly: MIC by micro-liquid dilution method (CLSI). Format: cell-based, Klebsiella pneumonia. Particulars: Klebsiella pneumoniae, ATCCBAA205.
The test system of series [14] is K. pneumoniae ATCC BAA-2470 (NDM-1). The experiment in a line: MIC by micro-liquid dilution method (CLSI). Format: cell-based, Klebsiella pneumonia. Particulars: Klebsiella pneumoniae, ATCCBAA2470.

A word on the MIC: it is the lowest concentration found to suppress growth. Take `C[C@H]1[C@H](NC(=O)/C(=N\OC(C)(C)C(=O)O)c2csc(N)n2)C(=O)N1S(=O)(=O)O` [Aztreonam, reference compound]: the LOG10-of bacterial load in series [1] is recorded as 1.62 ± 2.22. In addition, the minimal inhibitory concentration (MIC) turned out to be 32 µg/mL (≈ 73.5 µM) with A. baumannii ATCC 17978; 32 µg/mL (≈ 73.5 µM) in series [3]; 128 µg/mL (≈ 294 µM) in series [4]; 32 µg/mL (≈ 73.5 µM) in series [5]; 32 µg/mL (≈ 73.5 µM) in series [6] (ATCCBAA1790, ATCC-BAA-1790, read-out: MIC); 32 µg/mL (≈ 73.5 µM) in series [7]. The MIC is 32 µg/mL (≈ 73.5 µM) in series [8]; 32 µg/mL (≈ 73.5 µM) in series [9] (ATCCBAA1800, ATCC-BAA-1800, read-out: MIC); 128 µg/mL (≈ 294 µM) in [10] (ATCCBAA1605); 64 µg/mL (≈ 147 µM) in series [11] (ATCCBAA1792, ATCC-BAA-1792, read-out: MIC). Also, the “Body weight on the fifth day” value in [2] is 28.02 ± 1.08 g. Further, in [2], the “Body weight on the first day” value is 27.16 ± 1.74 g. Further, in series [2], the “Body weight on the fourth day” value came out at 27.80 ± 2.37 g.
Regarding `C[C@@H](O)[C@H]1C(=O)N2C(C(=O)O)=C(S[C@@H]3CN[C@H](C(=O)N(C)C)C3)[C@H](C)[C@H]12` [Meropenem, reference compound], the MIC in [12] is 128 µg/mL (≈ 334 µM); in series [13] it was not above 0.125 µg/mL; in series [14] it was more than 128 µg/mL; in [3], 4 µg/mL (≈ 10.4 µM); in series [4], 128 µg/mL (≈ 334 µM); in series [5], 64 µg/mL (≈ 167 µM). In addition, the MIC in series [6] (ATCCBAA1790) was 128 µg/mL (≈ 334 µM); in series [7] it was 2 µg/mL (≈ 5.22 µM); in series [8] it was 0.5 µg/mL (≈ 1.3 µM); in series [9] (ATCCBAA1800) it was more than 128 µg/mL; in series [10] (ATCCBAA1605, ATCC-BAA-1605, read-out: MIC) it was 64 µg/mL (≈ 167 µM); in series [11] (ATCCBAA1792), 128 µg/mL (≈ 334 µM).
